According to PMC9436859, “Chromatographic separation of glycated peptide isomers derived from glucose and fructose” (Analytical and Bioanalytical Chemistry, 2022):

What was measured:
Assay type in all cases: physicochemical
[1] = RP-HPLC retention at neutral pH, Synergi Fusion RP, potassium phosphate; settings: potassium phosphate 10 mmol/L pH 7.2, 60 °C, UV 214 nm; for retention time (tr): Synergi Fusion RP, family #2 mixture (Fig. S10)
Protocol: (§1) Separations used either a Synergi Fusion-RP C18 column (ID: 2 mm, length: 150 mm, particle size: 4 µm, pore size: 80 Å, Phenomenex) or Aqua C18 column (ID: 2 mm, length: 150 mm, particle size: 3 µm, pore size: 125 Å, Phenomenex) using a System Gold HPLC equipped with a 507e autosampler (100 µL injection volume), a 125NM binary gradient pump, and a 166 UV/VIS detector. Eluents were water (eluent B1) and aqueous acetonitrile (60% v/v, eluent B2 or 40% v/v, eluent B3) containing sodium or potassium phosphate buffer or ammonium acetate (10 mmol/L). Eluents were prepared from aqueous stock solutions (0.1 mol/L) adjusted to pH 7.2, in case of ammonium acetate with ammonia. Solvents were filtered (pore size, 0.2 µm; Pall Corp., Ann Arbor, MI) and sonicated for 15 min prior to use. Peptides were eluted using a linear acetonitrile gradient from either 5 to 95% eluent B2 in 30 min, 5 to 70% eluent B2 in 65 min, or 7.5 to 95% eluent B3 in 58 min. Unless otherwise indicated, separations were performed at 60 °C with a flow rate of 0.2 mL/min and the absorbance was recorded at 214 nm. Fractions were analyzed by matrix-assisted laser desorption/ionization time-of-flight MS (MALDI-TOF/TOF–MS) on a 5800 proteomic analyzer (ABSciex GmbH, Darmstadt, Germany) operating in reflector mode and using a solution of α-cyano-4-hydroxycinnamic acid (4 g/L) in eluent A2 as matrix.

[2] = RP-HPLC retention at neutral pH, Aqua C18, sodium phosphate; settings: Aqua C18 (3 µm, 125 Å), sodium phosphate 10 mmol/L pH 7.2, 0.6% acetonitrile/min, 60 °C, UV 214 nm, mixture of family #2, order from individual injections
Protocol: as §1

[3] = RP-HPLC retention at neutral pH, Synergi Fusion RP, sodium phosphate; settings: linear 65-min gradient 3 to 42% acetonitrile, sodium phosphate 10 mmol/L pH 7.2, 60 °C, UV 214 nm, family mixture
Protocol: as §1

[4] = nanoUPLC-ESI-Orbitrap-MS retention, BEH C18, 0.1% formic acid; settings: nanoRP-UPLC, 30 °C, XIC; for retention time (tr): Acquity BEH C18 (1.7 µm), 87-min gradient 3 to 40% acetonitrile, glycated peptide mixture, 500 fmol each, glucated peptide or glucosyl-lysine species of the fructated peptide; for retention time (tr), mannosyl-lysine species: Acquity BEH C18, 87-min gradient 3 to 40% acetonitrile, second peak of the fructated peptide (mannosyl-lysine)
Protocol: Peptides were analyzed on a nanoAcquity UPLC (Waters GmbH) coupled on-line to an LTQ Orbitrap XL ETD mass spectrometer equipped with a nano-ESI source (Thermo Fisher Scientific GmbH, Bremen, Germany) operated in positive ion mode. Eluents were aqueous formic acid (0.1% v/v; eluent D1) and acetonitrile-containing formic acid (0.1% v/v; eluent D2). Peptides (10 µL, 500 fmol each) were trapped on a nanoAcquity Symmetry C18 column (ID: 180 μm, length: 2 cm, particle diameter: 5 μm) at a flow rate of 5 μL/min (3% eluent D2). Separation was achieved on a BEH 130 column (C18 phase, ID: 75 μm, length: 10 cm, particle diameter: 1.7 μm) using a flow rate of 0.4 μL/min and a column temperature of 30 °C. Peptides were eluted with two linear gradients from 3 to 40% eluent D2 in 87 min and then to 85% eluent D2 in 5 min. The transfer capillary temperature was set to 200 °C, and an ion spray voltage of 1.4 kV was applied to a PicoTip™ on-line nano-ESI emitter (New Objective, Berlin, Germany). Mass spectra (m/z range 400 to 2000) were recorded in the Orbitrap mass analyzer at a resolution of 60,000 at m/z 400. Tandem mass spectra were acquired in CID mode (isolation width 2 m/z units, normalized collision energy 35%, activation time 30 ms, default charge state 2, intensity threshold of 500 counts) using data-dependent acquisition (DDA) for the six most intense signals with a dynamic exclusion window of 60 s.

[5] = IP-RP-HPLC retention, Jupiter C18, 0.1% TFA; settings: 60 °C, UV 214 nm
Protocol: Separations used a Jupiter C18 column (ID: 2 mm, length: 150 mm, particle size: 5 µm, pore size: 300 Å, Phenomenex) and a System Gold HPLC equipped with a 508 autosampler (100 µL injection volume), a 125NM binary gradient pump, and a UV detector (Knauer GmbH, Berlin, Germany). Eluents were 0.1% (v/v) TFA (eluent A1) and 60% (v/v) aqueous acetonitrile containing 0.1% (v/v) TFA (eluent A2). Peptides were eluted using a linear acetonitrile gradient from either 5 to 95% eluent A2 in 30 min or 5 to 60% eluent A2 in 55 min. Separations were performed at a column temperature of 60 °C with a flow rate of 0.2 mL/min, and the absorbance was recorded at 214 nm. Separations were performed twice with deviations of the retention times of ~ 0.2 min for the shallow gradient.

[6] = Jupiter C18, 0.1% TFA, 0.6% acetonitrile/min, family injected as a mixture (Fig. S3F)

Substance: ADLAKAmaYIC*ENQDSISSK [2B, glucated (Amadori) tryptic peptide HSA A258-K274, K262]
- retention time (tr) [1]: 32.9 min
- retention time (tr) [2]: 38.0 min

Substance: ADLAKHeyYIC*ENQDSISSK [2C, fructated (Heyns) tryptic peptide HSA A258-K274, K262]
- retention time (tr) [1]: 31.4 min
- retention time (tr) [2]: 36.5 min

Substance: AEFAEVSKAmaLVTDLTK [6B, glucated (Amadori) tryptic peptide HSA A226-K240, K233]
- retention time (tr) [3]: 45.3 min
- retention time (tr) [4]: 56.0 min
- retention time [5, 6]: 52.2 min

Substance: AEFAEVSKHeyLVTDLTK [6C, fructated (Heyns) tryptic peptide HSA A226-K240, K233]
- retention time (tr) [3]: 43.4 min
- retention time (tr) [4]: 55.7 min
- retention time (tr), mannosyl-lysine species [4]: 56.3 min
- retention time [5, 6]: 51.9 min

Substance: AVGDKHeyLPEC*EAVC*GKPK [1C, fructated (Heyns) tryptic peptide HP A77-K93, glycation site K81]
- retention time ([5]; Jupiter C18 (5 µm, 300 Å), 0.1% TFA, 5 to 60% eluent A2 in 55 min (0.6% acetonitrile/min), 0.2 mL/min, performed twice, deviations ~0.2 min): 27.6 min
- acetonitrile content at elution ([5]; Jupiter C18, 0.1% TFA, 0.6% acetonitrile/min): ~ 13%

Substance: EQLKAmaAVMDDFAAFVEK [7B, glucated (Amadori) tryptic peptide HSA E542-K557, K545]
- retention time (tr) [4]: 59.5 min

Substance: EQLKHeyAVMDDFAAFVEK [7C, fructated (Heyns) tryptic peptide HSA E542-K557, K545]
- retention time (tr) [4]: 59.5 min
- retention time (tr), mannosyl-lysine species [4]: 60.2 min

Substance: TC*VADESAENC*DKHeySLHTLFGDK [3C, fructated (Heyns) tryptic peptide HSA T52-K73, K64]
- retention time ([1]; new Synergi Fusion RP column, 58-min gradient 3 to 38% acetonitrile (eluent B3, 0.6%/min)): 26.2 min
